Data taken from ChEMBL document CHEMBL1152692, “Synthesis and evaluation of ligands for D2-like receptors: the role of common pharmacophoric groups” (Bioorg Med Chem, 2009).
pKi: −log10 of the molar value. Active and inactive are the calls of the source. No cut-off for these calls is given here.

Key:
D(4) dopamine receptor = target: T1, D(4) dopamine receptor (Homo sapiens, UniProt P21917)
T1 sequence (P21917 whole entry): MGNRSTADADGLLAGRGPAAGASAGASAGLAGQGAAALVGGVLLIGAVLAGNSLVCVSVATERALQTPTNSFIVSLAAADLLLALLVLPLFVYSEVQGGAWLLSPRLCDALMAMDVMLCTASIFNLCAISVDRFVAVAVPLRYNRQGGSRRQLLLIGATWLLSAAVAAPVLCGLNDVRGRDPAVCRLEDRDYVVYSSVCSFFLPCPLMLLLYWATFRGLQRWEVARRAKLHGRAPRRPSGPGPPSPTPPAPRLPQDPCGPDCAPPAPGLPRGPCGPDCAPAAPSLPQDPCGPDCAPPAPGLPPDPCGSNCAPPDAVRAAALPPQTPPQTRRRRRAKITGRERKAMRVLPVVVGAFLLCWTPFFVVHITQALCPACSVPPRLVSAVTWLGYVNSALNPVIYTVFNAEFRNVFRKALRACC

D(3) dopamine receptor [1] = target: T2, D(3) dopamine receptor (Homo sapiens, UniProt P35462)
T2 sequence (P35462 whole entry): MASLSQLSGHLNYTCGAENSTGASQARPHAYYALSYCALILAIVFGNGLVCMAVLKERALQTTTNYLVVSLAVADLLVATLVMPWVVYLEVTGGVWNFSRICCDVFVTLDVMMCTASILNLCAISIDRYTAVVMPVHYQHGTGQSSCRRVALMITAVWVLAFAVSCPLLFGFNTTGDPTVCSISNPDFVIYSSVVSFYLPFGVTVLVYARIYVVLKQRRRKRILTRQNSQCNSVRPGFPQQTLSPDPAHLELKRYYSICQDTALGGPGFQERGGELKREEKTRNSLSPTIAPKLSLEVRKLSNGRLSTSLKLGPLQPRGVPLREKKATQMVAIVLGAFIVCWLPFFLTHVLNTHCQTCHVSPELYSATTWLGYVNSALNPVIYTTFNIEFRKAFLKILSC

D(2) dopamine receptor [2] = target: T3, D(2) dopamine receptor (Homo sapiens, UniProt P14416)
T3 sequence (P14416 whole entry): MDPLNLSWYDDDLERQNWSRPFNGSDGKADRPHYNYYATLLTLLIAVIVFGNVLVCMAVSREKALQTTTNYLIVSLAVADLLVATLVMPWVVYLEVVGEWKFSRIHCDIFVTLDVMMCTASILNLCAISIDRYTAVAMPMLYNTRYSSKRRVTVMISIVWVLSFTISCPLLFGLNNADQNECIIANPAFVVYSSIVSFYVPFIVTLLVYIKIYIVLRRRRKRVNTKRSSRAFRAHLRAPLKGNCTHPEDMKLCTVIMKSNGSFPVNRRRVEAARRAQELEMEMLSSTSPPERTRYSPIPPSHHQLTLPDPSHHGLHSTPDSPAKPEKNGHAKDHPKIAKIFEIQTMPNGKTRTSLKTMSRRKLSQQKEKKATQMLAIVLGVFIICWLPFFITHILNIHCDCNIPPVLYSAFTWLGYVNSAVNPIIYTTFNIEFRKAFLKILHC

[3] = target: T4, D(4) dopamine receptor (Homo sapiens) (UniProt P21917)
T4 sequence (whole entry): T1 sequence (P21917 whole entry)

D(2) dopamine receptor [4] = target: T3, D(2) dopamine receptor; remark: listed apart in the source
D(3) dopamine receptor [5] = target: T2, D(3) dopamine receptor; remark: listed apart in the source

Compound	pKi (D(4) dopamine receptor)	Activity (D(2) dopamine receptor [4])	Activity (D(3) dopamine receptor [5])	pKi (D(3) dopamine receptor [1])	pKi (D(2) dopamine receptor [2])	Activity [3]
O=C(CCCN1CCN(c2ccc(Cl)cc2)CC1)c1ccc(F)cc1	7.77					
OC1(c2ccc(Cl)cc2)CC2CCC(C1)N2CCc1c[nH]c2ccccc12 (stereo not drawn)				7.74	7.28	
OC1(c2ccc(Cl)cc2)CCN(CCc2c[nH]c3ccccc23)C1 (stereo not drawn)		inactive		5.51		inactive
OC1(c2ccc(Cl)cc2)CCN(Cc2c[nH]c3ccccc23)C1 (stereo not drawn)	6.09	inactive		5.54		
Clc1ccc(N2CC3CC2CN3Cc2c[nH]c3ncccc23)cc1 (stereo not drawn)	7.16			7.96	7.21	
O[C@]1(c2ccc(Cl)cc2)C[C@H]2CC[C@@H](C1)N2Cc1c[nH]c2ccccc12	5.52			7.60		
OC1(c2ccc(Cl)cc2)CC2CCC(C1)N2Cc1c[nH]c2ncccc12 (stereo not drawn)					6.23	
O=C(CN1C2CCC1CC(O)(c1ccc(Cl)cc1)C2)c1ccc(F)cc1 (stereo not drawn)				< 5.00		

Further lines, with some results ahead:

pKi (D(4) dopamine receptor)	Activity (D(2) dopamine receptor [4])	Activity (D(3) dopamine receptor [5])	Compound	pKi (D(3) dopamine receptor [1])	pKi (D(2) dopamine receptor [2])	Activity [3]
7.25			c1cnc(N2CCN(Cc3c[nH]c4ncccc34)CC2)nc1	5.82	5.93	
6.29			O=C(CCCN1CC2CC1N(c1ccc(Cl)cc1)C2)c1ccc(F)cc1 (stereo not drawn)	6.66	6.77	
7.73			Clc1ccc(N2CCCN(Cc3c[nH]c4ncccc34)CC2)cc1	6.43	6.01	
5.92	inactive	inactive	OC1(c2ccc(Cl)cc2)CCN(Cc2c[nH]c3ncccc23)C1 (stereo not drawn)			
